Measured values from ChEMBL document CHEMBL1944520, “Discovery of 3-aryloxy-lactam analogs as potent androgen receptor full antagonists for treating castration resistant prostate cancer” (Bioorg Med Chem Lett, 2012).
In brackets after ≈: the same amount, converted by molar mass.

Key:
[1] = molecular target: T1, Androgen receptor (Homo sapiens) (UniProt P10275); experiment: Agonist activity at androgen receptor expressed in human LNAR cells as induction of luciferase activity by spectrophotometry relative to untreated control; type: functional, cell-based
T1 sequence (whole entry): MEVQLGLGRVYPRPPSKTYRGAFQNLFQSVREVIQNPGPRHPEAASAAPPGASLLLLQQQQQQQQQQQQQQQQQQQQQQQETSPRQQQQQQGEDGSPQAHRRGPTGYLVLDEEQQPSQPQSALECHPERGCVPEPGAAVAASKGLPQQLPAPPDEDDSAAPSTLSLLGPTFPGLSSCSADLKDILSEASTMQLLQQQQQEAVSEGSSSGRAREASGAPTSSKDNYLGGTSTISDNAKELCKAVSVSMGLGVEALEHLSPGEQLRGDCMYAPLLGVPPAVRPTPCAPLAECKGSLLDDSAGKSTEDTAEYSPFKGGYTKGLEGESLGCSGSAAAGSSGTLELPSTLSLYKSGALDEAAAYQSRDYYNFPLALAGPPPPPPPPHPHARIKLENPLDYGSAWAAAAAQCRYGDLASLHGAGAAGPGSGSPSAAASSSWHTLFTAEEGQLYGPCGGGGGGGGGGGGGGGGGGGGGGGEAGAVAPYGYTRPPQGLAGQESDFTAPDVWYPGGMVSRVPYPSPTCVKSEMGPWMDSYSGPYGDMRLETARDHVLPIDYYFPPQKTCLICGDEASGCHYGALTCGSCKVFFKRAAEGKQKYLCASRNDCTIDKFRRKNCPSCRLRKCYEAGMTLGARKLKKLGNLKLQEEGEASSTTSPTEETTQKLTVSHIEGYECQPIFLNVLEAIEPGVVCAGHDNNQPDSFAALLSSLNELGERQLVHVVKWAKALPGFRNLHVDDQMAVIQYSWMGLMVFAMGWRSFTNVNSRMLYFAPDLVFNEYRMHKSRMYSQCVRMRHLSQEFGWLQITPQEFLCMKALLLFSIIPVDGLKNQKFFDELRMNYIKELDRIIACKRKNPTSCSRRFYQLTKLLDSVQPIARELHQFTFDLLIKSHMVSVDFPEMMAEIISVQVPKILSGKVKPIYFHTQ

[2] = molecular target: T1, Androgen receptor (Homo sapiens); experiment: Antagonist activity at androgen receptor expressed in human LNAR cells assessed as inhibition of R1881-induced luciferase activity at 1 uM by spectrophotometry; type: functional, cell-based
Androgen receptor = molecular target: T2, Androgen receptor (Homo sapiens, UniProt P10275); experiment: Antagonist activity at androgen receptor expressed in human LNAR cells assessed as inhibition of R1881-induced luciferase activity by spectrophotometry; type: functional, cell-based
T2 sequence (P10275 whole entry): T1 sequence (whole entry)

[3] = Solubility of the compound at pH 7.4; type: physicochemical; settings: buffer
Rattus norvegicus = experiment: Unbound plasma clearance in iv dosed rat; type: ADME, organism-based; settings: in vivo
[4] = Oral bioavailability in rat; type: ADME, organism-based; settings: in vivo
[5] = Fraction unbound in human; type: ADME, organism-based; settings: in vivo
Liver microsomes = experiment: Unbound intrinsic clearance in human liver microsomes; type: ADME, Microsome
[6] = molecular target: T1, Androgen receptor (Homo sapiens); experiment: Antagonist activity at androgen receptor expressed in human LNAR cells assessed as inhibition of R1881-induced luciferase activity at 0.1 uM by spectrophotometry; type: functional, cell-based

inhibition [2] [%]	Structure (SMILES)	fold change (FC) [1]	IC50 (Androgen receptor) [nM]	also measured
47	CC1(C)CN(CCC#N)C(=O)[C@@H]1Oc1cc(C(F)(F)F)c(C#N)cn1	1.16	–	–
23	CNC(=O)CN1CC(C)(C)C(Oc2ccc(C#N)c(C(F)(F)F)c2)C1=O (racemic)	0.85	–	–
–	CC(CO)CN1CC(C)(C)[C@@H](Oc2ccc(C#N)c(C(F)(F)F)c2)C1=O (stereo in doubt; 23) [listing 1 of 2 here]	–	371	–
–	CC(O)CN1CC(C)(C)[C@@H](Oc2ccc(C#N)c(C(F)(F)F)c2)C1=O (stereo in doubt; 18) [listing 1 of 2 here]	–	216	–
10	CC1(C)CN(CCC#N)C(=O)[C@@H]1Oc1ccc(C#N)cc1	0.95	–	–
–	CC(=O)CN1CC(C)(C)[C@@H](Oc2ccc(C#N)c(C(F)(F)F)c2)C1=O	0.91	266	–
–	CC(O)CN1CC(C)(C)[C@@H](Oc2ccc(C#N)c(C(F)(F)F)c2)C1=O (stereo in doubt; 18) [listing 2 of 2 here]	0.99	–	–
–	CC(c1nnc(-c2cccc(F)c2)o1)N1CC(C)(C)C(Oc2ccc(C#N)c(C(F)(F)F)c2)C1=O (racemic)	1.43	77	solubility [3]: 3.8 µg/mL (≈ 7.78 µM); CL free (Rattus norvegicus): 1585 mL/min/kg; bioavailability [4]: 10%; fraction unbound [5]: 0.00825; CL free (Liver microsomes): 115 µL/min/mg
–	CC(CO)N1CC(C)(C)[C@@H](Oc2ccc(C#N)c(C(F)(F)F)c2)C1=O (stereo in doubt; 15) [listing 1 of 2 here]	1.02	–	–
–	CC1(C)CN(CCO)C(=O)[C@@H]1Oc1ccc(C#N)c(C(F)(F)F)c1	1.03	263	–
–	C[C@@H](c1nnc(-c2ccccc2)o1)N1CC(C)(C)[C@@H](Oc2ccc(C#N)c(C(F)(F)F)c2)C1=O	3.09	–	inhibition [6]: 62%; solubility [3]: 3.7 µg/mL (≈ 7.86 µM); CL free (Rattus norvegicus): 4294 mL/min/kg; bioavailability [4]: 25%; fraction unbound [5]: 0.0181; CL free (Liver microsomes): 43.87 µL/min/mg
–	CC1(C)CN(CCC#N)C(=O)[C@@H]1Oc1ccc(C#N)c(Cl)c1	0.99	68	solubility [3]: 159 µg/mL (≈ 500 µM)
–	CC(CO)N1CC(C)(C)[C@@H](Oc2ccc(C#N)c(C(F)(F)F)c2)C1=O (stereo in doubt; 14) [listing 1 of 2 here]	–	371	–
–	COC(=O)CN1CC(C)(C)C(Oc2ccc(C#N)c(C(F)(F)F)c2)C1=O (racemic)	1.05	303	–
–	CC(CO)CN1CC(C)(C)[C@@H](Oc2ccc(C#N)c(C(F)(F)F)c2)C1=O (stereo in doubt; 23) [listing 2 of 2 here]	0.95	–	–
–	CC1(C)CNC(=O)[C@@H]1Oc1ccc(C#N)c(C(F)(F)F)c1	1.31	105	–
–	CC(O)CN1CC(C)(C)[C@@H](Oc2ccc(C#N)c(C(F)(F)F)c2)C1=O (single isomer, unassigned) [listing 1 of 2 here]	–	977	–
–	Cc1nnc(CN2CC(C)(C)[C@@H](Oc3ccc(C#N)c(C(F)(F)F)c3)C2=O)o1	0.97	633	solubility [3]: 217 µg/mL (≈ 550 µM)
–	CC(CO)N1CC(C)(C)[C@@H](Oc2ccc(C#N)c(C(F)(F)F)c2)C1=O (stereo in doubt; 14) [listing 2 of 2 here]	1.06	–	–
–	CC1(C)CN(CCC#N)C(=O)[C@@H]1Oc1ccc(C#N)c(C(F)(F)F)c1	0.89	131	solubility [3]: 57 µg/mL (≈ 162 µM); CL free (Rattus norvegicus): 170 mL/min/kg; bioavailability [4]: 64%; fraction unbound [5]: 0.226; CL free (Liver microsomes): 19.1 µL/min/mg
27	CC(O)(CO)CN1CC(C)(C)[C@@H](Oc2ccc(C#N)c(C(F)(F)F)c2)C1=O (stereo in doubt; 25)	0.92	–	–
–	CC(CO)N1CC(C)(C)[C@@H](Oc2ccc(C#N)c(C(F)(F)F)c2)C1=O (stereo in doubt; 15) [listing 2 of 2 here]	–	337	–
29	CC(C)(O)CN1CC(C)(C)[C@@H](Oc2ccc(C#N)c(C(F)(F)F)c2)C1=O	0.9	–	–
17	CC(O)(CO)CN1CC(C)(C)[C@@H](Oc2ccc(C#N)c(C(F)(F)F)c2)C1=O (stereo in doubt; 24)	1.01	–	–
–	CC(O)CN1CC(C)(C)[C@@H](Oc2ccc(C#N)c(C(F)(F)F)c2)C1=O (single isomer, unassigned) [listing 2 of 2 here]	0.97	–	–
–	CC1(C)CN(C(C)(C)CO)C(=O)[C@@H]1Oc1ccc(C#N)c(C(F)(F)F)c1	0.91	761	–
52	CC1(C)CN(CCC#N)C(=O)[C@@H]1Oc1cnc(C#N)c(C(F)(F)F)c1	0.89	–	–
–	CC1(C)CN(Cc2nnc(-c3ccccc3)o2)C(=O)[C@@H]1Oc1ccc(C#N)c(C(F)(F)F)c1	0.95	71	solubility [3]: 5.9 µg/mL (≈ 12.9 µM); CL free (Rattus norvegicus): 921 mL/min/kg; bioavailability [4]: 10%; fraction unbound [5]: 0.0127; CL free (Liver microsomes): 19.3 µL/min/mg

Structure (SMILES)	inhibition [2] [%]	fold change (FC) [1]	IC50 (Androgen receptor) [nM]	also measured
CC1(C)CN(CC#N)C(=O)[C@@H]1Oc1ccc(C#N)c(C(F)(F)F)c1	89	2.75	–	–
CC(CO)CN1CC(C)(C)[C@@H](Oc2ccc(C#N)c(C(F)(F)F)c2)C1=O (stereo in doubt; 22)	96	1.01	–	–
CCCN1CC(C)(C)[C@@H](Oc2ccc(C#N)c(C(F)(F)F)c2)C1=O	88	1.45	–	–
CCCCN1CC(C)(C)[C@@H](Oc2ccc(C#N)c(C(F)(F)F)c2)C1=O	85	2.12	–	–
CC1(C)CN(CCCO)C(=O)[C@@H]1Oc1ccc(C#N)c(C(F)(F)F)c1	87	1.11	–	–
